Marks after values point to notes of the source that are not given here.
System: obese patients with hypertension
Assay: Randomized, double-blind, multicenter clinical study: add-on treatment in grade 3 obese hypertensive patients who did not respond to HCTZ 25 mg
Assay type: in vivo, human
Conditions: for BP control rate (in words): grade 3 obesity patients, comparison between treatment groups
Text: The effect of Aliskiren to treat hypertension in patients with obesity was investigated in a clinical study. […] [table]

[1] = Grade 3 obesity (BMI ≧ 40 kg/m^2), least squares mean ± SEM change from baseline at wk 12 endpoint (ANCOVA; intent-to-treat), add-on to HCTZ 25 mg, dose doubled after 4 weeks

| Structure (SMILES) | BP control rate (in words) | Change in DBP, mmHg [1] | Change in SBP, mmHg [1] | BP control rate (Grade 3 obesity (BMI ≧ 40 kg/m^2), patients reaching <140/90 mmHg, wk 12 endpoint, logistic regression model) |
| --- | --- | --- | --- | --- |
| COCCCOc1cc(C[C@@H](C[C@H](N)[C@@H](O)C[C@H](C(=O)NCC(C)(C)C(N)=O)C(C)C)C(C)C)ccc1OC [aliskiren, 2(S),4(S),5(S),7(S)—N-(3-amino-2,2-dimethyl-3-oxopropyl)-2,7-di(1-methylethyl)-4-hydroxy-5-amino-8-[4-methoxy-3-(3-methoxy-propoxy)phenyl]-octanamide] | highly effective BP control | – | – | – |
| NS(=O)(=O)c1cc2c(cc1Cl)NCNS2(=O)=O [PBO/HCTZ, hydrochlorothiazide] | lower control rates | −5.9 ± 2.2 mmHg | −7.1 ± 3.2 mmHg | 16.7%** |
